Source: publication PMC3742671, “Structure, Antimicrobial Activities and Mode of Interaction with Membranes of Bovel Phylloseptins from the Painted-Belly Leaf Frog, Phyllomedusa sauvagii” (PLoS ONE, 2013)
Ends that are not written are not given here.

Assays:
[1] = Circular dichroism spectroscopy in SDS micelles; format: physicochemical; details: CD, peptide 30 µM in 80 mM SDS
Protocol: (§1) The far-ultraviolet circular dichroism (CD) spectra were recorded as described. Phylloseptins-S (30 µM) were solubilized either in 80 mM sodium dodecyl sulfate (SDS) or in phosphate-buffered saline (PBS: 10 mM phosphate, pH 7.3) containing 1 mg/mL of large unilamellar vesicles (LUVs) of 1,2-dimyristoyl-sn-glycero-3-phosphocholine (DMPC) and 1,2-dimyristoyl-sn-glycero-3-phosphoglycerol (DMPG) (3∶1 mol/mol). DMPC and DMPG were purchased from Avanti Polar Lipids, Inc. Each spectrum was the average of four scans. CD measurements are reported as Δ/n, where Δ is the dichroic increment and n is the number of residues in the peptide.
(§2) Figure 6 Circular dichroism spectra of synthetic phylloseptins-S (30 µM). (A) DMPC/DMPG (3∶1) large unilamellar vesicles in PBS (1 mg/mL). (B) 80 mM SDS. CD measurements are reported as the dichroic increment (Δε) per residue.

S. pyogenes ATCC 19615 = details: LB medium (pH 7), absorbance at 630 nm; average of three independent experiments in triplicates
Protocol: (§3) The effect of phylloseptins-S was evaluated against several bacterial strains and yeasts (Table 2). Bacteria were cultured in Luria-Bertani broth (LB), whereas yeasts were cultured in Yeast Peptone Dextrose medium (YPD), and minimal inhibitory concentrations (MICs) were determined by measuring the absorbance at 630 nm in 96-well microtitration plates, as described previously. Leishmanicidal activity of phylloseptins-S was also examined against promastigotes of different Leishmania species: Leishmania infantum (strain MHOM/MA/67/ITMAP-263), L. major (MHOM/SU/73/5-ASKH) and L. braziliensis (MHOM/BR/75/M2904). Culture of promastigotes and determination of the growth inhibition were performed as previously described, [22], [23].
(§4) The antimicrobial activity of synthetic PLS-S1 to -S5 was assayed in LB medium (pH 7) against several Gram-negative and Gram-positive bacteria, and multi-drug resistant S. aureus strains. […] The antiparasitic activity of PLSs was also determined against three Leishmania species (L. infantum, L. major, and L. braziliensis). […] Because PLS-S3 contains histidines as basic residues and that approximately only 11% of these residues are positively charged at pH 7, we have evaluated the antibacterial activity at pH 5 at which His residues are predominantly positively charged (∼91%).

S. aureus ATCC BAA-44 = details: multidrug resistant strain; LB medium (pH 7), absorbance at 630 nm; average of three independent experiments in triplicates
Protocol: as §3, §4

E. faecalis ATCC 29212 = details: LB medium (pH 7), absorbance at 630 nm; average of three independent experiments in triplicates
Protocol: as §3, §4

A. baumannii ATCC 19606 = details: LB medium (pH 7), absorbance at 630 nm; average of three independent experiments in triplicates
Protocol: as §3, §4

S. aureus ATCC 25923 = details: LB medium (pH 7), absorbance at 630 nm, 96-well plates; average of three independent experiments in triplicates
Protocol: as §3, §4

K. pneumoniae ATCC 13883 = details: LB medium (pH 7), absorbance at 630 nm; average of three independent experiments in triplicates
Protocol: as §3, §4

S. aureus ATCC 43300 = details: strain resistant to methicillin and oxacillin; LB medium (pH 7), absorbance at 630 nm; average of three independent experiments in triplicates
Protocol: as §3, §4

P. aeruginosa ATCC 27853 = details: LB medium (pH 7), absorbance at 630 nm; average of three independent experiments in triplicates
Protocol: as §3, §4

E. coli ML-35p = details: LB medium (pH 7), absorbance at 630 nm; average of three independent experiments in triplicates
Protocol: as §3, §4

S. aureus ST1065 = details: LB medium (pH 7), absorbance at 630 nm; average of three independent experiments in triplicates
Protocol: as §3, §4

E. coli ATCC 25922 = details: for MIC: ATCC 25922, pH 7
Protocol: as §3, §4

[2] = system: C. parapsilosis ATCC 22019; format: cell-based
Protocol: as §3

S. cerevisiae = format: cell-based
Protocol: as §3

[3] = Circular dichroism spectroscopy with DMPC/DMPG (3:1) large unilamellar vesicles; format: physicochemical; details: CD, peptide 30 µM, DMPC/DMPG (3:1) LUVs 1 mg/mL in PBS pH 7.3
Protocol: as §1, §2

Row | Substance | helix content [1] | MIC (S. pyogenes ATCC 19615) | MIC (S. aureus ATCC BAA-44) | MIC (E. faecalis ATCC 29212) | MIC (A. baumannii ATCC 19606) | MIC (S. aureus ATCC 25923) | MIC (K. pneumoniae ATCC 13883) | MIC (S. aureus ATCC 43300) | MIC (P. aeruginosa ATCC 27853) | MIC (E. coli ML-35p) | MIC (S. aureus ST1065) | MIC at pH 5 (E. coli ATCC 25922; ATCC 25922, pH 5) | MIC (E. coli ATCC 25922) | MIC [2] | MIC (S. cerevisiae) | helix content [3]
1 | FLSLIPHIVSGVASLAIHF-NH2 [PLS-S3] | 44% | 12.5 µM | >200 µM | >200 µM | >200 µM | >200 µM | >200 µM | >200 µM | >200 µM | >200 µM | >200 µM | 50 µM | >200 µM | >200 µM | >200 µM | 65%
2 | LLGMIPVAISAISALSKL-NH2 [PLS-S5] | 20% | – | >100 µM | 100 µM | – | 25 µM | – | >100 µM | >100 µM | >100 µM | >100 µM | – | >100 µM | >100 µM | – | 60%
